Data as given in ChEMBL document CHEMBL1201862, “PubChem BioAssay data set” (2004).
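Cultured in 96-well plates, cells were exposed to test compound for 48 hours across five concentrations. Here, GI50 denotes the concentration required for 50% inhibition of growth.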 The source made the active and inactive calls. Rule as the data show it: active = GI50 up to about 1.1 µM and inactive = higher.

Tests used:
Assay in all cases: inhibition of tumour cell growth, NCI panel, 48 h
U-251 = tested on: U-251
A549 = tested on: A549
NCI-H460 = tested on: NCI-H460
RPMI-8226 = tested on: RPMI-8226
CCRF-CEM = tested on: CCRF-CEM
MCF7 = tested on: MCF7
SK-MEL-28 = tested on: SK-MEL-28
TK-10 = tested on: TK-10
HCT-15 = tested on: HCT-15
OVCAR-8 = tested on: OVCAR-8
SK-MEL-5 = tested on: SK-MEL-5
SK-MEL-2 = tested on: SK-MEL-2
IGROV-1 = tested on: IGROV-1
HOP-62 = tested on: HOP-62
T47D = tested on: T47D
SK-OV-3 = tested on: SK-OV-3
DU-145 = tested on: DU-145
RXF 393 = tested on: RXF 393
COLO 205 = tested on: COLO 205
ACHN = tested on: ACHN

Compound	GI50 (U-251)	GI50 (A549)	GI50 (NCI-H460)	GI50 (RPMI-8226)	GI50 (CCRF-CEM)	GI50 (MCF7)	GI50 (SK-MEL-28)	GI50 (TK-10)	GI50 (HCT-15) [µM]	GI50 (OVCAR-8)	GI50 (SK-MEL-5)	GI50 (SK-MEL-2)	GI50 (IGROV-1)	GI50 (HOP-62)	GI50 (T47D)	GI50 (SK-OV-3)	GI50 (DU-145)	GI50 (RXF 393)	GI50 (COLO 205)	GI50 (ACHN)
CCOC(=O)CCC(NC(=O)c1ccc(Nc2cnc3ccc(C(F)(F)F)cc3n2)cc1)C(=O)OCC (stereo not given)	11.6 µM (inactive)	> 34.6 µM (inactive)	8.02 µM (inactive)	> 22.4 µM (inactive)	> 100 µM (inactive)	27.9 µM (inactive)	> 100 µM (inactive)	4.97 µM (inactive)	> 100	8.81 µM (inactive)	> 64.7 µM (inactive)	> 96.4 µM (inactive)	10.9 µM (inactive)	14.1 µM (inactive)	5.45 µM (inactive)	16.5 µM (inactive)	> 26 µM (inactive)	15 µM (inactive)	> 100 µM (inactive)	24.9 µM (inactive)
CC1(C)[C@H]2CC[C@](C)(C2)[C@]1(S)Cc1ccccn1	14.4 µM (inactive)	42.7 µM (inactive)	27.2 µM (inactive)	21.5 µM (inactive)	5 µM (inactive)	32.5 µM (inactive)	> 100 µM (inactive)	32.4 µM (inactive)	41.7	17.5 µM (inactive)	21.8 µM (inactive)	20.8 µM (inactive)	30.8 µM (inactive)	29.6 µM (inactive)	24.5 µM (inactive)	29.8 µM (inactive)	22.4 µM (inactive)	26.7 µM (inactive)	34.3 µM (inactive)	54.2 µM (inactive)
Cc1nn(-c2ccccc2)c(C)c1/C=N/NC(=O)c1sc(=S)n(-c2ccc(Cl)cc2)c1N	6 µM (inactive)	6.28 µM (inactive)	4.83 µM (inactive)	2.67 µM (inactive)	6.01 µM (inactive)	18 µM (inactive)	5.4 µM (inactive)	1.87 µM (inactive)	6.56	32.3 µM (inactive)	4.03 µM (inactive)	17.3 µM (inactive)	1.49 µM (inactive)	6.44 µM (inactive)	16.5 µM (inactive)	3.87 µM (inactive)	> 100 µM (inactive)	2.15 µM (inactive)	4.69 µM (inactive)	4.18 µM (inactive)
Cc1ccnc(NS(=O)(=O)c2ccc(NC(=O)c3ccc4nc5ccccc5c(Nc5ccc(S(=O)(=O)Nc6nccc(C)n6)cc5)c4c3)cc2)n1	19.8 µM (inactive)	> 100 µM (inactive)	65.3 µM (inactive)	57.8 µM (inactive)	42.3 µM (inactive)	21.1 µM (inactive)	> 100 µM (inactive)	> 100 µM (inactive)	> 100	> 100 µM (inactive)	27.7 µM (inactive)	16 µM (inactive)	63.1 µM (inactive)	> 100 µM (inactive)	30.8 µM (inactive)	> 100 µM (inactive)	> 100 µM (inactive)	13.6 µM (inactive)	> 100 µM (inactive)	> 100 µM (inactive)
O=C(CC(=O)N1N=C(N(c2ccccc2)c2ccccc2)CC1c1ccccc1)Nc1ccc(Cl)cc1 (stereo not given)	> 100 µM (inactive)	> 100 µM (inactive)	> 100 µM (inactive)	> 100 µM (inactive)	> 100 µM (inactive)	> 100 µM (inactive)	> 100 µM (inactive)	> 100 µM (inactive)	> 100	> 100 µM (inactive)	> 100 µM (inactive)	> 100 µM (inactive)	> 100 µM (inactive)	> 100 µM (inactive)	> 100 µM (inactive)	> 100 µM (inactive)	> 100 µM (inactive)	> 100 µM (inactive)	> 100 µM (inactive)	> 100 µM (inactive)
COc1cc2c3c(cc(Cl)nc3c1OC)C(O)(CC(=O)c1ccccc1)C(=O)N2 (stereo not given)	17.1 µM (inactive)	18 µM (inactive)	21 µM (inactive)	2.55 µM (inactive)	1.64 µM (inactive)	1.88 µM (inactive)	16 µM (inactive)	18.1 µM (inactive)	21.5	14 µM (inactive)	15.9 µM (inactive)	15.1 µM (inactive)	13.2 µM (inactive)	19.2 µM (inactive)	3.56 µM (inactive)	17.4 µM (inactive)	16.2 µM (inactive)	13.4 µM (inactive)	24.3 µM (inactive)	14.9 µM (inactive)
